Results: paper PMC6524640 (Biochimica et biophysica acta. Biomembranes, 2019)
No end group written: not given here.

Molecular target: Ca2+/CaM (Homo sapiens, UniProt P0DP23)
Type: binding

| Substance | Kd | KD from titration to 15N-labeled Ca2+/CaM (result in words) (nanodisc free solution, same conditions as the SFWT peptide) |
| --- | --- | --- |
| HAGKTGSSGPLQ [SFFA] | 0.27 µM |  |
| HFGKpTGSSGPLQ [pSFWT] |  | did not reach saturation |
| HFGKTGAASDQR [LFRA] | 750 µM |  |
